Legend:
Assay in all cases: relative viability (nuclei count vs DMSO), 5 days (fraction); higher = more cells survive
VE-821 + OSI-027 = compound: CS(=O)(=O)c1ccc(-c2cnc(N)c(C(=O)Nc3ccccc3)n2)cc1 [VE-821] + COc1cccc2cc(-c3nc([C@H]4CC[C@H](C(=O)O)CC4)n4ncnc(N)c34)[nH]c12 [OSI-027] (partner 0.5 µM)
Method in brief: (§1)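 For relative viability, nuclei counts in treated wells were divided by those in vehicle wells. Lung cancer cell lines had been pin-tool dosed in 1536-well plates the day after seeding and cultured for 5 days, then fixed and stained in one step (final 0.05% Triton X-100, 1% formaldehyde, 1 ug/ml Hoechst) and imaged at 4×. Doses were one drug alone or a fixed anchor-drug dose plus five library-drug doses (not always all listed) in √10 steps, and values are duplicate-plate medians.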

VE-821 + Decitabine = compound: CS(=O)(=O)c1ccc(-c2cnc(N)c(C(=O)Nc3ccccc3)n2)cc1 [VE-821] + Nc1ncn([C@H]2C[C@H](O)[C@@H](CO)O2)c(=O)n1 [Decitabine] (partner 2 µM)
Method in brief: as §1

Vismodegib + Navitoclax = compound: CS(=O)(=O)c1ccc(C(=O)Nc2ccc(Cl)c(-c3ccccn3)c2)c(Cl)c1 [Vismodegib] + CC1(C)CCC(c2ccc(Cl)cc2)=C(CN2CCN(c3ccc(C(=O)NS(=O)(=O)c4ccc(N[C@H](CCN5CCOCC5)CSc5ccccc5)c(S(=O)(=O)C(F)(F)F)c4)cc3)CC2)C1 [Navitoclax] (partner 0.5 µM)
Method in brief: as §1

Vismodegib + AZD7762 = compound: CS(=O)(=O)c1ccc(C(=O)Nc2ccc(Cl)c(-c3ccccn3)c2)c(Cl)c1 [Vismodegib] + NC(=O)Nc1cc(-c2cccc(F)c2)sc1C(=O)N[C@H]1CCCNC1 [AZD7762] (partner 0.2 µM)
Method in brief: as §1

Cell Line	relative viability (VE-821 + OSI-027; first compound 0.08 µM)	relative viability (VE-821 + OSI-027; first compound 0.253 µM)	relative viability (VE-821 + OSI-027; first compound 0.8 µM)	relative viability (VE-821 + OSI-027; first compound 2.53 µM)	relative viability (VE-821 + OSI-027; first compound 8 µM)	relative viability (VE-821 + Decitabine; first compound 0.08 µM)	relative viability (VE-821 + Decitabine; first compound 0.253 µM)	relative viability (VE-821 + Decitabine; first compound 0.8 µM)	relative viability (VE-821 + Decitabine; first compound 2.53 µM)	relative viability (VE-821 + Decitabine; first compound 8 µM)	relative viability (Vismodegib + Navitoclax; first compound 0.08 µM)	relative viability (Vismodegib + Navitoclax; first compound 0.253 µM)	relative viability (Vismodegib + Navitoclax; first compound 0.8 µM)	relative viability (Vismodegib + Navitoclax; first compound 2.53 µM)	relative viability (Vismodegib + Navitoclax; first compound 8 µM)	relative viability (Vismodegib + AZD7762; first compound 0.08 µM)	relative viability (Vismodegib + AZD7762; first compound 0.253 µM)	relative viability (Vismodegib + AZD7762; first compound 0.8 µM)	relative viability (Vismodegib + AZD7762; first compound 2.53 µM)	relative viability (Vismodegib + AZD7762; first compound 8 µM)
NCI-H1651	0.781	0.629	0.578	0.686	0.521	0.486	0.697	0.614	0.673	0.543	0.954	0.956	0.984	0.885	1.11	0.512	0.454	0.535	0.36	0.433
NCI-H1944	0.441	0.354	0.383	0.463	0.328	0.418	0.408	0.418	0.438	0.343	0.994	1.05	1.04	1.02	0.999	0.492	0.557	0.408	–	0.505
NCI-H1792	0.725	0.786	0.608	0.447	0.484	0.639	0.536	0.482	0.586	0.529	0.634	0.655	0.588	0.616	0.619	0.682	0.679	0.677	0.724	0.729
HCC-44	0.498	0.427	0.634	0.563	0.556	0.9	0.963	1.05	1.04	1.04	1.05	0.893	1.05	0.989	0.87	1.06	1.04	0.932	1.01	1.04
NCI-H596	0.648	0.519	0.534	0.558	0.451	1.08	1.08	1.04	1.12	1.09	0.95	1.01	0.848	0.882	0.904	1.07	1.04	0.954	1.11	1.08
201T	0.815	0.672	0.688	0.747	0.381	0.887	0.878	0.887	0.918	0.659	1.23	1.18	1.15	1.23	1.17	0.624	0.623	0.696	0.622	0.581
HOP-62	1.04	0.809	0.73	0.925	0.697	0.185	0.261	0.265	0.214	0.25	0.985	1.06	0.915	0.819	1.07	0.591	0.41	0.798	0.691	0.423
NCI-H1975	0.901	0.589	–	0.471	0.439	0.4	0.38	0.358	0.381	0.324	1.2	1.06	1.22	1.08	1.09	0.689	0.649	0.642	0.729	0.631
NCI-H1755	0.795	0.709	0.636	0.755	0.632	0.734	0.754	0.866	0.867	0.831	0.961	0.957	1.04	0.934	0.985	0.453	0.568	0.515	0.449	0.41
ChaGo-K-1	0.624	0.475	0.669	0.649	0.419	0.55	0.493	0.506	0.537	0.559	0.994	1.14	0.956	0.977	0.986	0.886	0.873	0.753	0.857	0.97
EKVX	0.696	0.675	0.676	0.745	0.605	0.406	0.366	0.322	0.327	0.38	0.664	0.901	0.999	0.899	0.914	–	0.774	0.717	0.606	0.735
LCLC-97TM1	0.564	0.506	0.669	0.786	0.668	0.266	0.278	0.239	0.251	0.178	–	–	0.443	–	0.63	0.292	0.262	0.327	0.297	0.286
NCI-H2085	0.788	0.736	0.489	0.747	0.334	0.539	0.528	0.778	–	0.538	1.11	1.06	1.12	1.06	1.12	0.972	0.972	1.11	0.997	0.914
BEN	0.279	0.297	0.332	0.277	0.316	0.699	0.679	0.687	0.768	0.644	0.0646	0.062	0.0698	0.0746	0.0684	0.792	0.68	0.77	0.684	0.701
HARA	0.75	0.434	0.497	0.76	0.392	0.551	0.636	0.613	0.615	0.516	1.13	1.15	1.16	1.11	1.14	0.462	–	0.309	0.244	0.417
PC-14	1.01	0.762	0.913	0.824	0.336	0.221	0.241	0.222	0.213	0.126	0.967	0.974	1.1	0.946	0.965	0.301	0.326	0.458	0.272	0.353
NCI-H1355	0.443	0.346	0.375	0.442	0.307	0.362	0.347	0.333	0.371	0.36	0.931	1.06	0.863	0.913	0.952	0.763	0.694	0.806	0.744	0.722

— the supplement of paper PMC10307832
